# Experimental data: ChEMBL document CHEMBL1154736, “Increasing selectivity of CC chemokine receptor 8 antagonists by engineering nondesolvation related interactions with the intended and off-target binding sites” (J Med Chem, 2009)
# Tests used:
# [1] = target: C-C chemokine receptor type 8 (Homo sapiens, UniProt P51685); experiment: Antagonist activity at human CCR8; format: functional
# [2] = target: Voltage-gated inwardly rectifying potassium channel KCNH2 (Homo sapiens, UniProt Q12809, Y652F); experiment: Inhibition of human recombinant ERG Y652F mutant expressed in CHOK1 cells by whole-cell plate-based electrophysiology; conditions: cho-k1
# [3] = target: Voltage-gated inwardly rectifying potassium channel KCNH2 (Homo sapiens, UniProt Q12809, F656T); experiment: Inhibition of human recombinant ERG F656T mutant expressed in CHOK1 cells by whole-cell plate-based electrophysiology; conditions: cho-k1
# [4] = target: Voltage-gated inwardly rectifying potassium channel KCNH2 (Homo sapiens, UniProt Q12809, Y652A); experiment: Inhibition of human recombinant ERG Y652A mutant expressed in CHOK1 cells by whole-cell plate-based electrophysiology; conditions: cho-k1
# [5] = target: Voltage-gated inwardly rectifying potassium channel KCNH2 (Homo sapiens, UniProt Q12809, F656M); experiment: Inhibition of human recombinant ERG F656M mutant expressed in CHOK1 cells by whole-cell plate-based electrophysiology; conditions: cho-k1
# [6] = Apparent n-Octanol-water partition coefficient, log D at pH 7.4 by HPLC analysis
# [7] = target: Voltage-gated inwardly rectifying potassium channel KCNH2 (Homo sapiens, UniProt Q12809, S624A); experiment: Inhibition of human recombinant ERG S624A mutant expressed in CHOK1 cells by whole-cell plate-based electrophysiology; conditions: cho-k1
# [8] = target: Voltage-gated inwardly rectifying potassium channel KCNH2 (Homo sapiens, UniProt Q12809, F656W); experiment: Inhibition of human recombinant ERG F656W mutant expressed in CHOK1 cells by whole-cell plate-based electrophysiology; conditions: cho-k1
# [9] = target: Voltage-gated inwardly rectifying potassium channel KCNH2 (Homo sapiens, UniProt Q12809, T623S); experiment: Inhibition of human recombinant ERG T623S mutant expressed in CHOK1 cells by whole-cell plate-based electrophysiology; conditions: cho-k1
# [10] = target: T1, Voltage-gated inwardly rectifying potassium channel KCNH2 (Homo sapiens, UniProt Q12809); experiment: Inhibition of wild type human ERG expressed in CHOK1 cells by whole-cell plate-based electrophysiology
# [11] = target: T1, Voltage-gated inwardly rectifying potassium channel KCNH2; experiment: Displacement of [3H]dofetilide from human recombinant ERG expressed in HEK293 cells by patch clamp method
# [12] = target: Voltage-gated inwardly rectifying potassium channel KCNH2 (Homo sapiens, UniProt Q12809, S624T); experiment: Inhibition of human recombinant ERG S624T mutant expressed in CHOK1 cells by whole-cell plate-based electrophysiology; conditions: cho-k1
# Sequence of C-C chemokine receptor type 8 (P51685 whole entry): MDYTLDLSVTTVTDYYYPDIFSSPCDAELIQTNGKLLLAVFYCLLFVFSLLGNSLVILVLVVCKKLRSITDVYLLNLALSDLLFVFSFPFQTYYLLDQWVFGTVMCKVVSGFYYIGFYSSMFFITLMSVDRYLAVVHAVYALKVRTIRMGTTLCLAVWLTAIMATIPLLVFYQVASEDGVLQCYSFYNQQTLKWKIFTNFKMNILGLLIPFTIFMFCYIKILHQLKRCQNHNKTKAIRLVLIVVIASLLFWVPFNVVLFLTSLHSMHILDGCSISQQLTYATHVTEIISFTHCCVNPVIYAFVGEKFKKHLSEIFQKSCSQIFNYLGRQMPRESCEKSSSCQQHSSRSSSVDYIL
Compound,IC50 [1] [µM],logD [6],delta pIC50 wt-mutant [2],delta pIC50 wt-mutant [3],delta pIC50 wt-mutant [4],delta pIC50 wt-mutant [5],delta pIC50 wt-mutant [7],delta pIC50 wt-mutant [8],delta pIC50 wt-mutant [9],IC50 [10] [µM],IC50 [11] [µM],delta pIC50 wt-mutant [12]
CC1(C)Cc2cccc(CN3CCC4(CC3)CCN(C(=O)c3ncccc3N)CC4)c2O1,0.0224,1.4,0.64,0.77,1.81,-0.26,1.32,-0.32,0.41,4.17,32.4,0.43
CC1(C)Cc2c(CN3CCC4(CC3)CCN(C(=O)c3ccc(N)cn3)CC4)cccc2O1,0.00813,1.3,0.68,0.2,1.23,-0.22,0.79,-0.66,0.49,16.6,12.9,0.31
CC1(C)CCc2cc(CN3CCC4(CC3)CCN(C(=O)c3ccc(N)cn3)CC4)ccc2O1,0.0955,1.1,0.47,-0.09,0.83,-0.66,1.09,-0.35,0.24,19.5,32.4,-0.28
CCCC1(CC)Cc2c(CN3CCC4(CC3)CCN(C(=O)c3ccc(N)cn3)CC4)cccc2O1 (centres undefined),0.0024,2.5,,,,,,,,,,
CC1(C)Cc2c(CN3CCC4(CC3)CCN(C(=O)c3ccnc(N)c3)CC4)cccc2O1,0.0224,1.4,-0.37,1.32,0.89,0.14,0.55,-0.61,0.01,28.8,17,-0.58
CC(C)(C)C1(C)Cc2c(CN3CCC4(CC3)CCN(C(=O)c3ccc(N)cn3)CC4)cccc2O1 (centres undefined),0.00282,2.6,,,,,,,,,,
CC1Cc2cccc(CN3CCC4(CC3)CCN(C(=O)c3ccncc3)CC4)c2O1 (centres undefined),,,-0.21,1.41,1.63,1.04,0.61,-0.58,0.24,,,-0.12
CC1(C)CCc2cc(CN3CCC4(CC3)CCN(C(=O)c3ccncn3)CC4)ccc2O1,1.82,0.9,0.11,0.46,0.82,-0.3,0.74,-0.14,0.39,11.2,,-0.39
CC1(C)C=Cc2cccc(CN3CCC4(CC3)CCN(C(=O)c3ccnc(N)c3)CC4)c2O1,0.00562,1.5,0.04,1.32,0.93,0.37,0.48,-0.75,0.2,,,-0.62
CC1(C)Cc2cccc(CN3CCC4(CC3)CCN(C(=O)c3ccc(N)cn3)CC4)c2O1,0.00263,1,0.35,0.51,0.83,-0.31,0.82,-0.99,0.22,43.7,37.2,-0.05
O=C(c1ccncc1)N1CCC2(CCN(Cc3cccc4c3OCC4)CC2)CC1,1.48,0.3,,,,,,,,,,
CC1(C)Oc2c(CN3CCC4(CC3)CCN(C(=O)c3ccc(N)cn3)CC4)cccc2C1(F)F,0.00263,2.3,0.02,-0.17,0.87,-0.49,0.36,-1.07,0.01,30.9,47.9,-0.62
O=C(c1ccncc1)N1CCC2(CCN(Cc3ccccc3OC(F)(F)C(F)F)CC2)CC1,0.525,2.8,-0.32,1.42,1,0.48,0.11,-0.54,0.06,5.13,17,-0.08
CC1(C)Cc2c(CN3CCC4(CC3)CCN(C(=O)c3ccncc3)CC4)cccc2O1,0.0309,1.6,,,,,,,,7.08,30.2,
CC1(C)Oc2cccc(CN3CCC4(CC3)CCN(C(=O)c3ccnc(N)c3)CC4)c2O1,0.00661,1.2,-0.19,1.37,1.22,0.62,0.59,-0.39,-0.06,16.6,0.759,-0.33

# More lines, main results first:
IC50 [1] [µM],logD [6],Compound,delta pIC50 wt-mutant [2],delta pIC50 wt-mutant [3],delta pIC50 wt-mutant [4],delta pIC50 wt-mutant [5],delta pIC50 wt-mutant [7],delta pIC50 wt-mutant [8],delta pIC50 wt-mutant [9],IC50 [10] [µM],IC50 [11] [µM],delta pIC50 wt-mutant [12]
0.0115,,COc1ccccc1Oc1ccccc1CN1CCC2(CC1)CCN(C(=O)c1ccncc1)CC2,,,,,,,,,,
0.0708,1.6,C=C(C)COc1ccccc1CN1CCC2(CC1)CCN(C(=O)c1ccncc1)CC2,,,,,,,,,,
0.141,2,O=C(c1ccncn1)N1CCC2(CCN(Cc3ccccc3Oc3ccccc3)CC2)CC1,,,,,,,,,,
0.107,1.8,CC(C)COc1ccccc1CN1CCC2(CC1)CCN(C(=O)c1ccncc1)CC2,,,,,,,,,,
0.141,-0.11,CC(C)COc1ccccc1CN1CCC2(CC1)CCN(C(=O)c1ccncn1)CC2,-0.42,1.65,0.7,0.21,0.51,-0.42,0.22,4.9,19.1,0.12
0.0148,1.2,COc1ccccc1Oc1ccccc1CN1CCC2(CC1)CCN(C(=O)c1ccncn1)CC2,,,,,,,,,,
0.0049,1.7,COc1ccccc1Oc1cccc(CN2CCC3(CC2)CCN(C(=O)c2ccncn2)CC3)c1,-0.29,0.58,0.98,-0.2,0.67,-0.15,0.44,1.91,,-0.3
0.055,0.9,COc1ccccc1Oc1ccccc1CN1CCC2(CC1)CCN(C(=O)c1ccc[nH]c1=O)CC2,0.35,1.92,1.19,0.22,0.54,-0.18,0.51,14.1,2,0.24
